# According to patent publication US20020122795A1, “Compositions containing gangliosides for use in the treatment of skin disorders” (priority 2000, published 2002):
# Tests used:
# Integrin avb3 = Integrin avb3 (Homo sapiens, UniProt P05106+P06756); assay: Binding of ganglioside to integrin avb3
# adhesion to vitronectin = assay: Adhesion to vitronectin; format: cell-based
# Excerpt: (§1) The ganglioside specifically interacts through carbohydrate moieties, with preference for the a5 subunit of the a5b1. […] Although any interaction between ganglioside and integrin b1 is much weaker, GT1b is able to bind b1 and, by doing so, inhibits b1 phosphorylation and serine/threonine phosphorylation.
# FAK = assay: Phosphorylation of FAK; format: cell-based
# Excerpt: as §1
# [1] = system: keratinocytes and keratinocyte-derived cells; assay: Migration of keratinocytes and keratinocyte-derived cells on fibronectin; format: cell-based; settings: fibronectin substrate
# Excerpt: (§2) Keratinocyte motility on a fibronectin substrate is critical in the reepithelialization of healing wounds, and in the spread of cutaneous malignancy. We discovered that gangliosides GT1b and GD3 inhibit the adhesion to and migration of keratinocytes and keratinocyte-derived cells on fibronectin (See, Paller, A. S., et al., J. Invest. Dermatol., 105:237-242 (1995); Sung, C-C., et al., Exp. Cell Res., 239:311-319 (1998); Wang, X-Q, et al., J. Biol. Chem., 276(48):44504-44511 (2001) each incorporated by reference). Conversely, endogenous depletion of gangliosides through sialidase gene modulation leads to increased adhesion of the cells to fibronectin and vitronection. Gangliosides also trigger the apoptosis of keratinocytes when plated on a fibronectin matrix.
# keratinocyte a5b1 = molecular target: T1, keratinocyte a5b1 (Homo sapiens, UniProt P05556+P08648); assay: Direct interaction of ganglioside with keratinocyte a5b1; format: binding; settings: through carbohydrate moieties
# T1 construct: endogenous in cells; host or cells: keratinocytes
# T1 sequence (P08648 42-894 limits assumed): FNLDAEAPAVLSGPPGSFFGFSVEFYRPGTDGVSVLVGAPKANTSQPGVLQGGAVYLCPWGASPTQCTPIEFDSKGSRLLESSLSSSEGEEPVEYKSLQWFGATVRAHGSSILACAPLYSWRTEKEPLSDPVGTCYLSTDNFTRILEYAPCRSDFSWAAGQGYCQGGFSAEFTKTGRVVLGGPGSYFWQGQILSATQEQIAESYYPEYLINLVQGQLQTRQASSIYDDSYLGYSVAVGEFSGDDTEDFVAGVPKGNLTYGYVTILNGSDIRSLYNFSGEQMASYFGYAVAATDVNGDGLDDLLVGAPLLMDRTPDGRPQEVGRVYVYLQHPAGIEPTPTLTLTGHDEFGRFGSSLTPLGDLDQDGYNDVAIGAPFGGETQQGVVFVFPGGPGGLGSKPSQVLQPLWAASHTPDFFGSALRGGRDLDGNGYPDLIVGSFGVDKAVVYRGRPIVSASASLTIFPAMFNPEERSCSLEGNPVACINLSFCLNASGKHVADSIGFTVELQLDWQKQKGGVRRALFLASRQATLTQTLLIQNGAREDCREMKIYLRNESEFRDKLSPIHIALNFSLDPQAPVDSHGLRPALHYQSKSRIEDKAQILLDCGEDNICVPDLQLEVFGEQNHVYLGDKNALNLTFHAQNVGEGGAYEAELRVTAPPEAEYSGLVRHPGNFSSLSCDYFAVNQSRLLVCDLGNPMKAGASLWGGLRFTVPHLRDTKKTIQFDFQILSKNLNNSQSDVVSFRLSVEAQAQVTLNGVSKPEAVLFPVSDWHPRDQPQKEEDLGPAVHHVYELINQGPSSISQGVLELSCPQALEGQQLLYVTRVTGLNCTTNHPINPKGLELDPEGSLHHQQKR
# T1 sequence (P08648 895-1049 limits assumed): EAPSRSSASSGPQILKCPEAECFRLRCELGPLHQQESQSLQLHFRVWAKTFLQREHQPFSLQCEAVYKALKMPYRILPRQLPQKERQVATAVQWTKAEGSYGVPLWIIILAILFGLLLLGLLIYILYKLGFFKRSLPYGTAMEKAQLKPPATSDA
# T1 sequence (P05556 21-798): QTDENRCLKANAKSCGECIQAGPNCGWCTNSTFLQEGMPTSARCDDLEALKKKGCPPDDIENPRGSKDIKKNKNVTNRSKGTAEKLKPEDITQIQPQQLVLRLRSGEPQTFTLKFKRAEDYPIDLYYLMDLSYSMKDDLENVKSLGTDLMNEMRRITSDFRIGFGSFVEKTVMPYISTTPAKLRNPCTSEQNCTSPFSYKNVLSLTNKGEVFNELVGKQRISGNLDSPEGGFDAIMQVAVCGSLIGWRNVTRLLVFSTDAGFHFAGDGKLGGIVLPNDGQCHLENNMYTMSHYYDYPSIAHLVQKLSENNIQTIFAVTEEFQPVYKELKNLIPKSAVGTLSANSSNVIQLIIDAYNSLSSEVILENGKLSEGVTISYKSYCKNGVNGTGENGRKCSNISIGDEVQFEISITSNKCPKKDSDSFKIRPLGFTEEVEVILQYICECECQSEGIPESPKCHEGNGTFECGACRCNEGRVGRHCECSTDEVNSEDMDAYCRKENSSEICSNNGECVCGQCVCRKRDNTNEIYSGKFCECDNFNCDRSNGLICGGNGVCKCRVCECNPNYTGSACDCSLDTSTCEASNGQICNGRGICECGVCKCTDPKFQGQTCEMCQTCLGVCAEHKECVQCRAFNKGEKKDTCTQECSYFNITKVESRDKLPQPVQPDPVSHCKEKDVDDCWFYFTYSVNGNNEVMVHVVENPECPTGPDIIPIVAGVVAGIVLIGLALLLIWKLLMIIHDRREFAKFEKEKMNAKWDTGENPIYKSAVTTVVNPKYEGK
# Excerpt: as §1
# MMP-2 = MMP-2 expression and activity in keratinocyte-derived SCC12 cells; format: cell-based
# Method: (§3) In contrast, inhibitors of protein kinase C (PKC) decrease the expression of TIMP-1 in SCC12 cells without altering MMP-9 expression. […] When both activators of PKC and gangliosides GT1b or GD3 are incubated together with the SCC12 cells, no change in the expression or activity of MMP-2 is noted. These studies provide evidence that more highly sialylated gangliosides modulate MMP-2 expression and activity in keratinocytes through a mechanism that involves suppression of the PKC signaling pathway.
# [2] = system: keratinocytes and keratinocyte-derived cells; assay: Adhesion of keratinocytes and keratinocyte-derived cells to fibronectin; format: cell-based; settings: fibronectin substrate
# Excerpt: as §2
# integrin-linked kinase = assay: Phosphorylation of integrin-linked kinase; format: cell-based
# Excerpt: as §1
# MMP-9 = MMP-9 expression and activity in keratinocyte-derived cells; format: cell-based
# Method: as §3
# MAP kinase = assay: Phosphorylation of MAP kinase (EGF signalling pathway); format: cell-based
# Excerpt: (§4) The mechanism for the overgrowth of skin cells depleted of gangliosides and for the inhibition of growth of skin cells with increased ganglioside GM3 is decreased availability of the epidermal growth factor receptor for binding to its ligands (epidermal growth factor and transforming growth factor-α). […] Also affected are downstream components in the epidermal growth factor signaling transduction pathway, e.g. GM3 downregulates the phosphorylation of MAP kinase and PI3 kinase.
# TIMP-1 = TIMP-1 expression in keratinocyte-derived cells; format: cell-based
# Method: as §3
# skin cells = assay: Proliferation of skin cells; format: cell-based
# Excerpt: One manifestation of basal cell and squamous cell cancers of the skin, psoriasis, and genetic disorders of skin overgrowth, such as certain forms of ichthyosis, is excessive proliferation of skin. In our experiments, we have noted that alterations in ganglioside content, whether by pharmacologic manipulation or endogenous alteration through gene therapy, also affect the growth of skin cells. […] We have now determined that a decrease in the same gangliosides would increase the proliferation of skin cells; in fact, we have determined that transfection of a sialidase gene that cleaves the sialic acid group(s) from all gangliosides results in total ganglioside depletion, and leads to increased proliferation of skin cells. […] We believe that a number of other gangliosides have similar effects, as described below, and could be used in therapeutic treatments.
# [3] = molecular target: T2, epidermal growth factor receptor (Homo sapiens, UniProt P00533); assay: Direct binding of ganglioside to the epidermal growth factor receptor in keratinocytes
# T2 construct: epidermal growth factor receptor in keratinocytes; endogenous in cells; host or cells: keratinocytes
# Excerpt: as §4
# PI3 kinase = assay: Phosphorylation of PI3 kinase (EGF signalling pathway); format: cell-based
# Excerpt: as §4
# integrin b1 [4] = molecular target: T3, integrin b1 (Homo sapiens, UniProt P05556); assay: Phosphorylation of integrin b1; format: cell-based
# T3 sequence (P05556 21-798): as above
# T3 sequence (P08648 42-894 partner limits assumed): as the sequence (P08648 42-894 limits assumed) above
# T3 sequence (P08648 895-1049 partner limits assumed): as the sequence (P08648 895-1049 limits assumed) above
# Excerpt: as §1
# [5] = system: explant cultures from patients with psoriasis; assay: Attachment of explant cultures from patients with psoriasis; format: cell-based
# Excerpt: The interaction of a5b1 and fibronectin is considered critical for embryonic development of skin, healing of wounds and spread of cutaneous malignancies. In addition, it is known in the art that cells from patients with psoriasis have shown increased adherence to fibronectin and a decreased ability to undergo apoptosis. […] Integrin avb3 plays a vital role in the development and proliferation of blood vessels in skin; increased activity leads to neovascularization, while inhibition can inhibit new vessel formation. Thus, an increase in more complex skin gangliosides, particularly GT1b, may be novel agents for treating psoriasis or in inhibiting vascular-dependent processes, such as the rapid growth of hemangiomas in infants. In contrast, depletion of gangliosides (e.g., through increased local sialidase activity) may encourage wound healing, through increasing the migration of keratinocytes, increasing keratinocyte proliferation, and encouraging angiogenesis. Thus, the invention includes administering gangliosides including but not limited to GT1b and GD3, and other agents that affect the amount and action of these gangliosides, to control fibronectin interactions.
# integrin b1 [6] = molecular target: T3, integrin b1; assay: Binding of ganglioside to integrin b1
# Excerpt: as §1
# TIMP-2 = TIMP-2 expression in keratinocyte-derived SCC12 cells; format: cell-based
# Method: as §3
# [7] = ganglioside incubated together with activators of PKC, SCC12 cells
# [8] = keratinocyte-derived SCC12 cells
# [9] = pharmacologic addition to normal keratinocyte-derived cells
# Chain of Integrin avb3 (P06756 31-889 limits assumed): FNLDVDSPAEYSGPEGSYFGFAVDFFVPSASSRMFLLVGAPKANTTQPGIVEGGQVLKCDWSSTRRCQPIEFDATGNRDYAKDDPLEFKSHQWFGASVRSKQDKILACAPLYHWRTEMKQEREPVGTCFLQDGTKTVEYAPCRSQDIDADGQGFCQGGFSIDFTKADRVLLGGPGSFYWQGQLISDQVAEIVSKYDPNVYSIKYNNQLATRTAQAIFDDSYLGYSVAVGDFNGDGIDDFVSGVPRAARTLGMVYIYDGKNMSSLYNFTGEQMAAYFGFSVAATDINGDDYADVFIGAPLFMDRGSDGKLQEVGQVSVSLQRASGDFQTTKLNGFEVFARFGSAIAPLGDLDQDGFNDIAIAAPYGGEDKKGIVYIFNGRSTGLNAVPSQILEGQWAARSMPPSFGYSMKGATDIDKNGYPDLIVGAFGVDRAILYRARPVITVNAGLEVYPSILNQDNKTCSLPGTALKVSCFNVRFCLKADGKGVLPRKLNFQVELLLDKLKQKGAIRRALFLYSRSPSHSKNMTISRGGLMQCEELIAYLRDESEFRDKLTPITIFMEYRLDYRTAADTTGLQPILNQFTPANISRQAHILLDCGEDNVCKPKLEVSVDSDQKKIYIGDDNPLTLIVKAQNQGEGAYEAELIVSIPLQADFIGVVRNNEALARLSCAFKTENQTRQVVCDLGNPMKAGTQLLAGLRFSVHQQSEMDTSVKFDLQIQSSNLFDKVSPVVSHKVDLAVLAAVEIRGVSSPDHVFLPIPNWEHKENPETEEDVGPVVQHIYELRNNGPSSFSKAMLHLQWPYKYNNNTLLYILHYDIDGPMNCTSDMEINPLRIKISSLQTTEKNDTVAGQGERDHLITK
# Chain of Integrin avb3 (P06756 891-1048 limits assumed): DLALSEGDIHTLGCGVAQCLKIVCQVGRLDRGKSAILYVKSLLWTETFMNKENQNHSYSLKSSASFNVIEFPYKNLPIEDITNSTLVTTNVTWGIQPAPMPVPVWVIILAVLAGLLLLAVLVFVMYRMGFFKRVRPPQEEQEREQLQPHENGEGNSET
# Chain of Integrin avb3 (P05106 27-788): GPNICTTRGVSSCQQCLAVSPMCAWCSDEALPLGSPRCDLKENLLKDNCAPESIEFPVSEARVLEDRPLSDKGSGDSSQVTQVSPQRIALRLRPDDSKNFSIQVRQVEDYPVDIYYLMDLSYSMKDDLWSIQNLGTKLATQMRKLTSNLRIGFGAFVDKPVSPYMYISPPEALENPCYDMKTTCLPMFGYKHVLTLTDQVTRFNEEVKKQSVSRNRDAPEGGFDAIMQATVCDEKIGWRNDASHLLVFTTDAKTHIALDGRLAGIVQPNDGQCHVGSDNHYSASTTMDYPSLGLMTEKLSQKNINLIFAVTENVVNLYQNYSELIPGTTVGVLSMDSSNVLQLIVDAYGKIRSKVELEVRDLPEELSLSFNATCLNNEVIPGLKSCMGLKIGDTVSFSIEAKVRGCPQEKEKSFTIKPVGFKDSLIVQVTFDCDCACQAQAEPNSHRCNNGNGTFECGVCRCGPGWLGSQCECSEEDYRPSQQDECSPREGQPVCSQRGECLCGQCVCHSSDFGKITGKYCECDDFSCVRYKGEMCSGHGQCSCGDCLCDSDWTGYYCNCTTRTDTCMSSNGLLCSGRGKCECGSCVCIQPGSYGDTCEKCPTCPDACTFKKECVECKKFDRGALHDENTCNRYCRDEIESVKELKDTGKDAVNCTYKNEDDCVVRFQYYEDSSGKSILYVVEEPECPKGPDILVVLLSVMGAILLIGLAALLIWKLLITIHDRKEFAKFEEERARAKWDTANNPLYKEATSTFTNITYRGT
substance,measurement,setting,value
GD2,binding to integrin avb3,Integrin avb3,binds
same,adhesion to vitronectin,adhesion to vitronectin,limit the adhesion
GD3,phosphorylation of FAK,FAK,inhibition of phosphorylation
same,migration of keratinocytes and keratinocyte-derived cells on fibronectin,[1],inhibit
same,interaction with keratinocyte a5b1,keratinocyte a5b1,direct interaction
same,binding to integrin avb3,Integrin avb3,binds
same,adhesion to vitronectin,adhesion to vitronectin,limit the adhesion
same,activity of MMP-2,MMP-2; [7],no change
same,expression of MMP-2,MMP-2; [7],no change
same,activity of MMP-2,MMP-2; [8],inhibit
same,expression of MMP-2,MMP-2; [8],inhibit
same,adhesion of keratinocytes and keratinocyte-derived cells to fibronectin,[2],inhibit
same,phosphorylation of integrin-linked kinase,integrin-linked kinase,inhibition of phosphorylation
GM3,activity of MMP-9,MMP-9; [9],without affecting
same,expression of MMP-9,MMP-9; [9],marked suppression
same,phosphorylation of MAP kinase,MAP kinase,downregulates
same,expression of TIMP-1,TIMP-1; [9],marked suppression
same,proliferation of skin cells,skin cells; pharmacologic addition of ganglioside,inhibit the proliferation
same,binding to the carbohydrate moieties of the epidermal growth factor receptor,[3],direct binding
same,phosphorylation of PI3 kinase,PI3 kinase,downregulates
GT1b,b1 phosphorylation,integrin b1 [4],inhibits
same,serine/threonine phosphorylation,integrin b1 [4]; on binding of b1,inhibits
same,phosphorylation of FAK,FAK,inhibition of phosphorylation
same,migration of keratinocytes and keratinocyte-derived cells on fibronectin,[1],inhibit
same,interaction with keratinocyte a5b1,keratinocyte a5b1,direct interaction
same,activity of MMP-9,MMP-9; [9],without affecting
same,expression of MMP-9,MMP-9; [9],marked suppression
same,activity of MMP-2,MMP-2; [7],no change
same,expression of MMP-2,MMP-2; [7],no change
same,activity of MMP-2,MMP-2; [8],inhibit
same,expression of MMP-2,MMP-2; [8],inhibit
same,expression of TIMP-1,TIMP-1; [9],marked suppression
same,adhesion of keratinocytes and keratinocyte-derived cells to fibronectin,[2],inhibit
same,attachment of explant cultures,[5],clear inhibition of attachment
same,phosphorylation of integrin-linked kinase,integrin-linked kinase,inhibition of phosphorylation
same,binding to integrin b1,integrin b1 [6],able to bind
PIP3 [reference compound],TIMP-2 expression,TIMP-2,only slightly increase
same,activity of MMP-2,MMP-2; [8],increased
same,expression of MMP-2,MMP-2; [8],increased
concanavalin A [reference compound],TIMP-2 expression,TIMP-2,only slightly increase
same,activity of MMP-2,MMP-2; [8],increased
same,expression of MMP-2,MMP-2; [8],increased
epidermal growth factor [reference compound],activity of MMP-9,MMP-9; SCC12 cells,increases its activity
same,expression of MMP-9,MMP-9; SCC12 cells,further increased
same,expression of TIMP-1,TIMP-1; SCC12 cells,does not affect
same,proliferation of skin cells,skin cells; added to sialidase-transfected (ganglioside-depleted) cells in culture,further accentuated
